From ChEMBL document CHEMBL1201862, “PubChem BioAssay data set” (2004)
Active and inactive are the calls of the source.

How the values were obtained:
[1] = target: T1, Dual specificity protein phosphatase 3 (Homo sapiens, UniProt P51452); experiment: VHR phosphatase inhibition, dose response, selectivity assay for STEP inhibitor project, biochemical (AID 602374); assay type: functional; details: read-out: IC50_Mean
[2] = target: T1, Dual specificity protein phosphatase 3; experiment: VHR1 phosphatase inhibitors, biochemical (AID 1878)
[3] = target: T1, Dual specificity protein phosphatase 3; experiment: VHR1 phosphatase inhibitors, primary screen, biochemical, absorbance, uHTS (AID 1654)
[4] = target: T2, Tyrosine-protein phosphatase non-receptor type 11 (Homo sapiens, UniProt Q06124); experiment: SHP2 phosphatase inhibition, dose response, selectivity assay for STEP inhibitor project, biochemical (AID 602367); assay type: functional; details: read-out: IC50_Mean
T2 sequence (Q06124 whole entry): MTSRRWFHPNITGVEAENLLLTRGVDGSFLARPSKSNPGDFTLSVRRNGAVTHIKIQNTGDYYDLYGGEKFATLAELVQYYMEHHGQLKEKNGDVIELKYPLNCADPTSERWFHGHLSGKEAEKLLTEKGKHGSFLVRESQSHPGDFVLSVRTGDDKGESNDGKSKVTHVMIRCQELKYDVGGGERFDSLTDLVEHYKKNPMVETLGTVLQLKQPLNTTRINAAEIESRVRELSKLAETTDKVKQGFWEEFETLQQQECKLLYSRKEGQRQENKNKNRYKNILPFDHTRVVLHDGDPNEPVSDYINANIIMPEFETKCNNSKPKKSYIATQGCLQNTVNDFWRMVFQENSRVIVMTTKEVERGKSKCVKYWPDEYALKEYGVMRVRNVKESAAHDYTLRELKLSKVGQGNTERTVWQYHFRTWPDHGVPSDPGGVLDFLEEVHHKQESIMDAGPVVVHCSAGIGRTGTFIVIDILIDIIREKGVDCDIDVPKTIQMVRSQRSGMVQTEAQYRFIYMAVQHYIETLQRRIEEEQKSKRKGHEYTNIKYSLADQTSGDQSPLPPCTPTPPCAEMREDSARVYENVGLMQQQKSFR

[5] = target: T3, Dual specificity protein phosphatase 6 (Rattus norvegicus, UniProt Q64346); experiment: MKP-3 phosphatase inhibitors, primary screen, biochemical, rat enzyme, in vitro (AID 425)
T3 sequence (Q64346 whole entry): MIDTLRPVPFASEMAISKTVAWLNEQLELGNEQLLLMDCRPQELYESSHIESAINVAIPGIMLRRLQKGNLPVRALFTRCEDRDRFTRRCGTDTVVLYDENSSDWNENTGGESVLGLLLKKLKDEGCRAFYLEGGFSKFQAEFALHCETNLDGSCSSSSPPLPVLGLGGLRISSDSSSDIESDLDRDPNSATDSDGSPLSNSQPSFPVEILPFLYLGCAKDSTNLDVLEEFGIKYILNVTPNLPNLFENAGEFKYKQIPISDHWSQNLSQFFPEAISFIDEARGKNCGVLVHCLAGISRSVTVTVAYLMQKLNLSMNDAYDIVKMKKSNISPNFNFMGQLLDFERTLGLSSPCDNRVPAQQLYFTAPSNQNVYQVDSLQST

[6] = target: T4, Tyrosine-protein phosphatase non-receptor type 5 (Homo sapiens, UniProt P54829); experiment: STEP phosphatase inhibitors, confirmation, biochemical, fluorescence intensity, uHTS hits (AID 602372); assay type: functional; details: read-out: IC50_Mean
T4 sequence (P54829 whole entry): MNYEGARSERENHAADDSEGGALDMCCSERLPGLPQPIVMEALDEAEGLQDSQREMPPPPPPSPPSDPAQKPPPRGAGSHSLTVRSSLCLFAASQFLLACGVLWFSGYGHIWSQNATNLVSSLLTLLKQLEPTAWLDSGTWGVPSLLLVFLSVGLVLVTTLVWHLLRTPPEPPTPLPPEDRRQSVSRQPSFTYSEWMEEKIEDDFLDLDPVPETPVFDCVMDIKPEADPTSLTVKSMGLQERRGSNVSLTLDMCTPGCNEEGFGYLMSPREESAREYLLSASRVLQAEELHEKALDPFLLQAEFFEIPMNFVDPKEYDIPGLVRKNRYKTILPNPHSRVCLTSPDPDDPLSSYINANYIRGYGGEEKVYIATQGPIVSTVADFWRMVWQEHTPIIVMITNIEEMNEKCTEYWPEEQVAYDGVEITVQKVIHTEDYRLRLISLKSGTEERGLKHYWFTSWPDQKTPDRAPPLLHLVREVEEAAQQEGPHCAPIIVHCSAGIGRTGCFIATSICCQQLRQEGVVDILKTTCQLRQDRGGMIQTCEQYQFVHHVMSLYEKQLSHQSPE

[7] = target: T5, Ubiquitin-conjugating enzyme E2 N (Homo sapiens, UniProt P61088); assay type: functional;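 note: Dose-response confirmation in a TR-FRET assay detecting UBC13-driven polyubiquitin chain formation, inhibition measured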
T5 sequence (P61088 whole entry): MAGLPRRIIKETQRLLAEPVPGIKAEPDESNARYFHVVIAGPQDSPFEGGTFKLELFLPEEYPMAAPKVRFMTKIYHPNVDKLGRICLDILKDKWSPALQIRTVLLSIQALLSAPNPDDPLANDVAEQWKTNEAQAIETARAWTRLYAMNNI

[8] = target: Peroxisome proliferator-activated receptor gamma/Nuclear receptor coactivator 3 (Homo sapiens, UniProt P37231); experiment: (§1) TR-FRET dose response biochemical High Throughput Screening assay for agonists of the steroid receptor coactivator 3 (SRC-3) recruitment by the peroxisome proliferator-activated receptor gamma (PPAR gamma): non-selective agonists. [Related pubchem assays: 1301 (Confirmation screen.), 1048 (Primary screen.)]; assay type: functional
[9] = target: Peroxisome proliferator-activated receptor gamma/Nuclear receptor coactivator 1 (Homo sapiens, UniProt P37231); experiment: as §1, with “1 (SRC-1)” for “3 (SRC-3)”, “assays (depositor defined):AID1300, AID1808, AID504735, AID631]” for “assays: 1301 (Confirmation screen.), 1048 (Primary screen.)]”; assay type: protein assay
[10] = target: Peroxisome proliferator-activated receptor gamma/Nuclear receptor coactivator 2 (Homo sapiens, UniProt P37231); experiment: TR-FRET dose response biochemical High Throughput Screening assay for agonists of the steroid receptor coactivator 2 (SRC-2) recruitment by the peroxisome proliferator-activated receptor gamma (PPAR gamma): non-selective agonists. [Related pubchem assays: 1297, 1032 ]; assay type: functional
[11] = target: T6, Voltage-gated N-type calcium channel alpha-1B subunit/Amyloid beta A4 precursor protein-binding family A member 1 (Homo sapiens, UniProt Q00975+Q02410); experiment: disruptors of Mint-PDZ/N-type channel peptide interaction – biochemical, HTRF, set 2, SAR follow-up (AID 434980); assay type: functional
SUMO E1/E2 = SUMO E1/E2 (Homo sapiens, UniProt P63279+Q9UBE0+Q9UBT2); experiment: SAR analysis of SUMOylation using HTRF in an in-Vitro dose response assay. [Related pubchem assays (depositor defined):AID2006, AID2011, AID2018, AID2069, AID2658]; assay type: functional
[12] = target: T6, Voltage-gated N-type calcium channel alpha-1B subunit/Amyloid beta A4 precursor protein-binding family A member 1; experiment: disruptors of Mint-PDZ/N-type channel peptide interaction – biochemical, HTRF, SAR follow-up (AID 2489); assay type: functional
[13] = target: T7, Alkaline phosphatase, tissue-nonspecific isozyme (Homo sapiens, UniProt P05186); experiment: TNAP enzyme inhibition by screening hits, dose response, selectivity assay for mouse IAP inhibitor project, biochemical, human TNAP, uHTS hits (AID 488906); assay type: functional
T7 sequence (P05186 whole entry): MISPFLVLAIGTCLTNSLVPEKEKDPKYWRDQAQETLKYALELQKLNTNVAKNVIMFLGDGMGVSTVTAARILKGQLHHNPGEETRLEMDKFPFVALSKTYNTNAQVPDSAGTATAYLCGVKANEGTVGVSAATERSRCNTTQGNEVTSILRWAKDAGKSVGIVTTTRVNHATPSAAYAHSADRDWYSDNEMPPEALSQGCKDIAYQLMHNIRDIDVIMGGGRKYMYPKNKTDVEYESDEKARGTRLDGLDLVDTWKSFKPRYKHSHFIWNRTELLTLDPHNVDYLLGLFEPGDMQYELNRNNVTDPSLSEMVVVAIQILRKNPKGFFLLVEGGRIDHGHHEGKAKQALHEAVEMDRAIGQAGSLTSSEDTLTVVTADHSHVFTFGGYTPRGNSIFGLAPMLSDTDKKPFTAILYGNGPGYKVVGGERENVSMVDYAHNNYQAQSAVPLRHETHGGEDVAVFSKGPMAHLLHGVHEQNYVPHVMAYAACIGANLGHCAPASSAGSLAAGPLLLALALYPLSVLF

[14] = target: Intestinal-type alkaline phosphatase (Mus musculus, UniProt P24822); experiment: PubChem AID 488785; assay type: functional
[15] = target: Intestinal-type alkaline phosphatase (Homo sapiens, UniProt P09923); experiment: inhibition of human intestinal alkaline phosphatase – biochemical, dose response (AID 488876); assay type: functional

T6 sequence (Q00975 whole entry): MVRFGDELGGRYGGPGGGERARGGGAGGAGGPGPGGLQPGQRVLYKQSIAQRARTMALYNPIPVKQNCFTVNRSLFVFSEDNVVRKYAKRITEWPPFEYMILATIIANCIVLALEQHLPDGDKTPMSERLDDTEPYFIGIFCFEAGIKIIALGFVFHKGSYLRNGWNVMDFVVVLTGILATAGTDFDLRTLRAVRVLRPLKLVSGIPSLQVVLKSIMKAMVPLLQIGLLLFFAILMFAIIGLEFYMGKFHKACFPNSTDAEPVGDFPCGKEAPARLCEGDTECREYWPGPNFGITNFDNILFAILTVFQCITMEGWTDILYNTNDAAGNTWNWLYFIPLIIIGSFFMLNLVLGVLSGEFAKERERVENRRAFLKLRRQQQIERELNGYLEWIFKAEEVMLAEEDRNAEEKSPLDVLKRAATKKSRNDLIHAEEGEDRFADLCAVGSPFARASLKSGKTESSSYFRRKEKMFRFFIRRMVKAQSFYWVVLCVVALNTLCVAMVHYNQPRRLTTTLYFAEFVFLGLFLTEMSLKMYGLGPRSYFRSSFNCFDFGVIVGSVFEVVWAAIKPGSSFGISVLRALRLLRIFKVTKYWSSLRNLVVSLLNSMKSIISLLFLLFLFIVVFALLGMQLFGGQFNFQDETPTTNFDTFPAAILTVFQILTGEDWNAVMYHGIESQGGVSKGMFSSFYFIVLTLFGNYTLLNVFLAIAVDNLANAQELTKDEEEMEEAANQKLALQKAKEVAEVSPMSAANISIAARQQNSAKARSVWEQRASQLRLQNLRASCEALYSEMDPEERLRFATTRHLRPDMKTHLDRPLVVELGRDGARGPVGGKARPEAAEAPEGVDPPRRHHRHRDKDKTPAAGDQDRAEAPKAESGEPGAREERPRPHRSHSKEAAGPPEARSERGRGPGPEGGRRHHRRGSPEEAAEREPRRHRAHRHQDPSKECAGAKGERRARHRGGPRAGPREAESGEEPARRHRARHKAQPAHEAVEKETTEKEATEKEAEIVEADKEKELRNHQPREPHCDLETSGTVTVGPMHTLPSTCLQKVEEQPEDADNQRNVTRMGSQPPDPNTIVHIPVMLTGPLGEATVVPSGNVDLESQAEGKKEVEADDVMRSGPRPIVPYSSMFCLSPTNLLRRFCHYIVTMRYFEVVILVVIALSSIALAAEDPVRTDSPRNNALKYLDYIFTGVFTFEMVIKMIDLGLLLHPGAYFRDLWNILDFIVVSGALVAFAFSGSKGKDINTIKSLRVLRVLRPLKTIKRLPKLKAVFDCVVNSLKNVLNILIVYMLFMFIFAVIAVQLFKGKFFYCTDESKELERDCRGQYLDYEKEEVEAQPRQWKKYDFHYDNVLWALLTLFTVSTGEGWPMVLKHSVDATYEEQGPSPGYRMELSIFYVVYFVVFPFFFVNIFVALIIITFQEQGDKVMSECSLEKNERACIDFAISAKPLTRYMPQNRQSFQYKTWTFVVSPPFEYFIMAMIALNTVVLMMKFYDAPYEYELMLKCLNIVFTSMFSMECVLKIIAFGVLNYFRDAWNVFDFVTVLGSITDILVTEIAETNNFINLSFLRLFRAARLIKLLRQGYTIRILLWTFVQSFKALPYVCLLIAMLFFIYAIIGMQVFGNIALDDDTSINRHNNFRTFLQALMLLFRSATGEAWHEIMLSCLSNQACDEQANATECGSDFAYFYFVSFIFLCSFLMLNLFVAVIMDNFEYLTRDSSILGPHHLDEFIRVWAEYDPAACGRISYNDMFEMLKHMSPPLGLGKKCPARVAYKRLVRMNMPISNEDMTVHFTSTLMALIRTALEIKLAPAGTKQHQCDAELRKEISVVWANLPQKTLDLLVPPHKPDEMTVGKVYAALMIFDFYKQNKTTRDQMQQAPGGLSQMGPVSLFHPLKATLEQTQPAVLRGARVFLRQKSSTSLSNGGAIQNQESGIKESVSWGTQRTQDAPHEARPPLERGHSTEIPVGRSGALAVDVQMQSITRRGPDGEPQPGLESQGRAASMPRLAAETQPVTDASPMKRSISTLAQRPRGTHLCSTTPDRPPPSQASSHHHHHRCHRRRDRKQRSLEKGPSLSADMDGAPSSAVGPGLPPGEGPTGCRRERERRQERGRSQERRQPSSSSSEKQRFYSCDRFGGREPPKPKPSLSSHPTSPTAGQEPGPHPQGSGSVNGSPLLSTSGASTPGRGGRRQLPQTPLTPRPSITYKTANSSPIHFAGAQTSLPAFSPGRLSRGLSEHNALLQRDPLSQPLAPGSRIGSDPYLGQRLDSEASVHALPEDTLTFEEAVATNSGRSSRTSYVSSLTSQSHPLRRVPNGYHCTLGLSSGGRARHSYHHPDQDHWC
T6 sequence (Q02410 whole entry): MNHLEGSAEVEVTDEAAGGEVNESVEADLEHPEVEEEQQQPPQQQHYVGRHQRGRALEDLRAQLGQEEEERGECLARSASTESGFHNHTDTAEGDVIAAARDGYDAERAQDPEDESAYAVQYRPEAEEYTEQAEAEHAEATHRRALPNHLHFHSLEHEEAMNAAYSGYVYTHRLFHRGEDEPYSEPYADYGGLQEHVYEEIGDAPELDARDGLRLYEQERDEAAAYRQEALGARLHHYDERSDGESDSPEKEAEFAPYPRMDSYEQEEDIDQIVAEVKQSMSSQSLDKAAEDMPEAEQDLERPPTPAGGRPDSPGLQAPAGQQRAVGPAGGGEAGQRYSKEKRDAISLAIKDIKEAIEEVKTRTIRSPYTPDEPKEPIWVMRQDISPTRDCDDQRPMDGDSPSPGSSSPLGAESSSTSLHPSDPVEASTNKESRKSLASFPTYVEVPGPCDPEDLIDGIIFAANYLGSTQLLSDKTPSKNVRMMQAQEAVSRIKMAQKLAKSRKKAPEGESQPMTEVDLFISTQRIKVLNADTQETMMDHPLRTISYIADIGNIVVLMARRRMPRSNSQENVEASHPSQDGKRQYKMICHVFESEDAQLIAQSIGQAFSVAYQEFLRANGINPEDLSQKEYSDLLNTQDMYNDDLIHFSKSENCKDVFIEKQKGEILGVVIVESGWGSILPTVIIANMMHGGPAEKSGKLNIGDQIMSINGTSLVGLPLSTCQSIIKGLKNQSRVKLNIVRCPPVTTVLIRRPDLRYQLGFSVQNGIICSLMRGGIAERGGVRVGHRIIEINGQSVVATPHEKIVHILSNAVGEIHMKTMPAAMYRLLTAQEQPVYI
T1 sequence (P51452 whole entry): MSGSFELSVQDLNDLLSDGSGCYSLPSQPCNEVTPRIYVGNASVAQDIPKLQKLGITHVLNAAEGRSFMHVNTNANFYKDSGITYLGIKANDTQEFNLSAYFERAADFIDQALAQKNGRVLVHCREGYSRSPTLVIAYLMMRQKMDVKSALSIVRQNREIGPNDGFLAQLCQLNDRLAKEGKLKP
Chain of SUMO E1/E2 (Q9UBE0 whole entry): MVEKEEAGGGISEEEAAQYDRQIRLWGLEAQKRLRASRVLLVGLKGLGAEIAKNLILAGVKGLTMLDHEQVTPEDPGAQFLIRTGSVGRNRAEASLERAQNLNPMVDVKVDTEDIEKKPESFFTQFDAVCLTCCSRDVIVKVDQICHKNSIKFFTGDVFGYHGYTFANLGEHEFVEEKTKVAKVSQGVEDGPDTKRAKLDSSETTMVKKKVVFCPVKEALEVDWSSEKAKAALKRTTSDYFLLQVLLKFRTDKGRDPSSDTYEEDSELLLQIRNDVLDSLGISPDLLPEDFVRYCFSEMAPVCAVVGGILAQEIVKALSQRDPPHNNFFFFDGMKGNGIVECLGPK
Chain of SUMO E1/E2 (Q9UBT2 whole entry): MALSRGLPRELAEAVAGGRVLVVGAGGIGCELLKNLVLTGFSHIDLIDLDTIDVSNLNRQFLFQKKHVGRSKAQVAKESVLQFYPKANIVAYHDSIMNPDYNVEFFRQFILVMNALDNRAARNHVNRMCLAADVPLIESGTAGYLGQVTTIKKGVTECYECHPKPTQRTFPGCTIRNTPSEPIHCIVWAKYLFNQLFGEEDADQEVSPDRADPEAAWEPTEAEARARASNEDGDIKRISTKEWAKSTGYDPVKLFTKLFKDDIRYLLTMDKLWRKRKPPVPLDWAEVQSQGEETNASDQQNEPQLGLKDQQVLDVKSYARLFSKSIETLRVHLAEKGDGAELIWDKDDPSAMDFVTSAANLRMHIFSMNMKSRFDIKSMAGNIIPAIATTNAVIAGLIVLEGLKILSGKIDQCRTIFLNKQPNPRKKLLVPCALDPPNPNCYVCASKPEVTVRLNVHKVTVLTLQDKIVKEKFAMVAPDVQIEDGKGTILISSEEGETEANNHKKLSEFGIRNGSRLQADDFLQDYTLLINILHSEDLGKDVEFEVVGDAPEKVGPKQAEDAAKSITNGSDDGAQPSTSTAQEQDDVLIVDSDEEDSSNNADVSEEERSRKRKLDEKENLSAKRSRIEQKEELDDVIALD
Chain of SUMO E1/E2 (P63279 whole entry): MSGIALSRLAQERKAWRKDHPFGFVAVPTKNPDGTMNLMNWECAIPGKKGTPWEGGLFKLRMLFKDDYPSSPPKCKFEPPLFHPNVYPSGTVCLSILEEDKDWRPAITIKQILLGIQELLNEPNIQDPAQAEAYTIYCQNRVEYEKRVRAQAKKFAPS
Chain of Intestinal-type alkaline phosphatase (Mus musculus, UniProt P24822) (P24822 whole entry): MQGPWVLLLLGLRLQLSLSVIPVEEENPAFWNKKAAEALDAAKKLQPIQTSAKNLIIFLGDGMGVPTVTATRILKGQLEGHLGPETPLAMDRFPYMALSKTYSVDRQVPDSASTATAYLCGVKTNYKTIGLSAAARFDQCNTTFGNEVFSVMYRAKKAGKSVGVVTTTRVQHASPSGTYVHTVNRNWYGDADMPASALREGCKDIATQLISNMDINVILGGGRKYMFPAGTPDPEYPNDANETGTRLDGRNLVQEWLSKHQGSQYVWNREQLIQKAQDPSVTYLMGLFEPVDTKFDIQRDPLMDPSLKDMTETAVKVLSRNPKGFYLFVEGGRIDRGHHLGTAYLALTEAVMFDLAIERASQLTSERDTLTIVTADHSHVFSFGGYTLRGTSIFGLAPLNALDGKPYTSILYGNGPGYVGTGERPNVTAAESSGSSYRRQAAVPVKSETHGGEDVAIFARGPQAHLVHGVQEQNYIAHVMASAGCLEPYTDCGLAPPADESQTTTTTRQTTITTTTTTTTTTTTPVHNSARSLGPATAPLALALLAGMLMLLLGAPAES

For `NC(=O)C1(N2CCCCC2)CCN(C(=S)Nc2ccc(S(N)(=O)=O)cc2)CC1`, the IC50 [1] was 0.811 µM (active), the IC50 [2] was 3.38 µM (active) and the IC50 [3] was 1.86 µM (active). The IC50 [4] was 2 µM (active), the IC50 [5] was > 158 µM (not active) and the IC50 [6] was 11.6 µM (active).
In the case of `COc1ccc(-c2c3c(nc4sc(C(=O)Nc5ccccc5)c(N)c24)CCC3)cc1`, the IC50 [7] is reported as > 20 µM (inactive), the EC50 [8] is reported as > 79.4 µM (not active) and the EC50 [9] is reported as > 79.4 µM (inactive). The EC50 [10] was > 79.4 µM (not active).
In the case of `COc1ccccc1CCNC(=O)COC(=O)c1cc(-c2ccco2)nc2ccccc12`, the IC50 [11] is reported as 17.4 µM (active), the IC50 (SUMO E1/E2) is reported as 25.3 µM (active) and the IC50 [12] is reported as 28.5 µM (active).
In the case of `COc1cccc(NC(=O)CN(C)S(=O)(=O)c2ccc3nc(O)oc3c2)c1`, the IC50 [13] is reported as > 100 µM (inactive), the IC50 [14] is reported as 4.03 µM (active) and the IC50 [15] is reported as > 100 µM (inactive).
In the case of `COc1ccc(CNC(=O)c2cc(-c3ccco3)nc3ccccc23)cc1`, the IC50 [11] is reported as 20.3 µM (active), the IC50 (SUMO E1/E2) is reported as 2.61 µM (active) and the IC50 [12] is reported as > 56.8 µM (inactive).
